Assay results published in patent publication US12290513B2, “Therapeutic methods and compositions for treating movement disorders” (Vima Therapeutics, Inc., priority 2023, dated 2025).

How the values were obtained:
[1] = human, in vivo
Experimental: Experimental Design: All of the data collected in this example were run in a double-blind, randomized, placebo controlled setting of normal healthy adults. […] Dizziness was measured by the visual analog scale (VAS), a common clinical measure of dizziness.

[2] = system: PCP (antagonist radioligand); conditions: at the tested concentration; negative values set to zero
[3] = dogs
human M4 receptor = molecular target: T1, human M4 receptor (Homo sapiens, UniProt P08173); experiment: Calcium flux assay (FLIPR), CHO cells transiently transfected with human M4; format: cell-based; conditions: agonist mode
T1 construct: expressed in transfected cells; host or cells: CHO (transient transfection)
Experimental: All cells used in the following experiments were clonal populations of Chinese Hamster Ovary (CHO) cells stably expressing the corresponding human muscarinic receptor, except for the M4 cell line, which was a population of CHO cells transiently transfected with the human M4 receptor. […] The procedure was as follows: • 1. Cells were thawed and cultured in cell culture medium (DMEM/F12 containing 10% FBS, 1× penicillin-streptomycin and 600 μg/ml hygromycin B) at 37° C. in 5% (v/v) CO2. • 2. One day before the assays, cells were detached using TrypLE™ and counted using a cell-counter. […] 12,000 cells/well were seeded in 30 μl/well culture medium in a 384-well cell plate and incubated overnight at 37C, 5% (v/v) CO2. • 4. On the assay day, 2× dye solution was prepared following the manual of the FLIPR® Calcium 6 Assay Kit: • i. The dye was diluted with assay buffer (20 mM HEPES in 1× HBSS, PH 7.4); • ii. Probenecid was added to a final concentration of 5 mM; • iii. Cells were vortexed vigorously for 1-2 minutes. • 5. Medium was removed from the cell plate by flicking the cell plate on paper towels. • 6. 10 μl of assay buffer and 10 μl of 2× dye solution was added to each well of the cell plate. • 7. […] Plates were read for 160 sec with 1 sec intervals to obtain the data in agonist mode, then kept at 25° C. in the dark for 30 min. • 11.

T1 sequence (P08173 whole entry): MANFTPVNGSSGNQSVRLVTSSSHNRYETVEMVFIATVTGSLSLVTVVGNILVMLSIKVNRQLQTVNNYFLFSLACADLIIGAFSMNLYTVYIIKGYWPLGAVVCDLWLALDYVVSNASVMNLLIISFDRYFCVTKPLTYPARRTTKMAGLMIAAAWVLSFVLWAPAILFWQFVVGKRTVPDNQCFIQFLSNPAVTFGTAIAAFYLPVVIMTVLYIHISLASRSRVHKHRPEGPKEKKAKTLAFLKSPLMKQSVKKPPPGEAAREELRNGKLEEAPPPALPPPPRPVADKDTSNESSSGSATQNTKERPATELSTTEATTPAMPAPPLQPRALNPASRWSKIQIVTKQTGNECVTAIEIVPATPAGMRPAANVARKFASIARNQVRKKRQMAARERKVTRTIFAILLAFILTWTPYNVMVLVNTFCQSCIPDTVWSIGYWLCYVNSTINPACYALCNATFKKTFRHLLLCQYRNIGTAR

SMILES | share of exposure that is R-THP [1] [%] | signal, PCP (antagonist radioligand) [2] [%] | share of total THP that was (R)-THP ([3]; IV 0.2 mg/kg Racemic THP) [%] | share of serum THP detected that was (R)-THP ([3]; oral 2 mg/kg Racemic THP, alone or co-dosed with Bethanechol) | EC50 (human M4 receptor) [µM]
O[C@@](CCN1CCCCC1)(c1ccccc1)C1CCCCC1 [(R)-THP, (R)-trihexyphenidyl] | 85 | 0.00 | ~60 | over 80% | 
C[C@@H](C[N+](C)(C)C)OC(N)=O.[Cl-] [(S)-BTC, (S)-bethanechol] |  |  |  |  | > 10
